Test results: patent EP3178809A1, “HYBRID MOLECULE WITH STRUCTURAL AND ACTIVITY ELEMENTS OF RESVERATROL AND DIALLYL SULFIDE” (Albert-Ludwigs-Universität Freiburg, priority 2015, dated 2017)
Values joined by “and” are separate entries in the source; they are usually repeats but may differ in a detail not shown here. Equal values may be shown once.

Assays:
[1] = molecular target: T1, NOX1 (Homo sapiens, UniProt Q9Y5S8); assay: Parallel control measurement of NOX1 activity / extracellular superoxide anion production; type: cell-based
T1 construct: endogenous in cells
T1 sequence (Q9Y5S8 1-564): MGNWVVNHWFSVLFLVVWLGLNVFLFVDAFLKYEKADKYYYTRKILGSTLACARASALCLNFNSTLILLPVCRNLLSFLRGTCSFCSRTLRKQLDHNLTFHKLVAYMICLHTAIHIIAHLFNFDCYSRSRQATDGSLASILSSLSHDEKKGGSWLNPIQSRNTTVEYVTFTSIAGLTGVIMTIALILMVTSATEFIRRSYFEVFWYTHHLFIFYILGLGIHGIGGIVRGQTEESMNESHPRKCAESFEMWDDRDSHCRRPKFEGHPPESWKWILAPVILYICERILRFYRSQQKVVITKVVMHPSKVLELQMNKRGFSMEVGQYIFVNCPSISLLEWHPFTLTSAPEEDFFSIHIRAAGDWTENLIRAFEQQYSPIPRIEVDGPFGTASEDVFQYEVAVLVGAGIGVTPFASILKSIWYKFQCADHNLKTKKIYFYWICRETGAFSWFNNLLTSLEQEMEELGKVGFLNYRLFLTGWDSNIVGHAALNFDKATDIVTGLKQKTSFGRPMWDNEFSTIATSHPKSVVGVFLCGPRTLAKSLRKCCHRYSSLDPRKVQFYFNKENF
T1 sequence (P13498 1-195 partner): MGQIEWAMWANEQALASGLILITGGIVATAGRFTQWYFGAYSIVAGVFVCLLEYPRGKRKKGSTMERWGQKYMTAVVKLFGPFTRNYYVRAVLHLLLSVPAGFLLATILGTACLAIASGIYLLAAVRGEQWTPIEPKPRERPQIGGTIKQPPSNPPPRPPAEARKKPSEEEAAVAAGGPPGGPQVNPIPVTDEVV
Experimental: Inkubationsbedingungen wie in Figur 11. Zusätzlich wurden 5 µM AEBSF oder 100 µM AEBSF zugegeben. 5 µM AEBSF führen zu einer Hemmung um nur 20 % von NOX1, während 100 µM mehr als 90 % hemmen, wie parallel durchgeführte Kontrollmessungen ergeben haben. Die geringfügige Hemmung durch 5 µM AEBSF reicht bereits aus, den Synergieeffekt aufzuheben und die Apoptoseinduktion auf das Niveau der alleinige Gabe von DADS zu drücken. Dies zeigt, dass tatsächlich die NOX-stimulierende Wirkung von Resveratrol für den Synergieeffekt notwendig war.
(§1) Die Messung der extrazellulären Superoxidanionenkonzentration von Tumorzellen sowie die Bestrahlungstechnik mit Niedrigdosis-Gammastrahlung wird in der Arbeit Temme and Bauer, 2013 beschrieben. Die Hemmung der NOD wird bei Scheit and Bauer, 2015, beschrieben. Viele Versuchsergebnisse wurden in den Figuren dargestellt.
Um zu klären, ob der durch das Hybridmolekül gebündelte Synergieeffekt tatsächlich durch die NOX-stimulierende Wirkung des von Resveratrol abgeleiteten Anteils mitgetragen wird, wurde die Wirkung des Hybridmoleküls in Gegenwart von 5 µM AEBSF untersucht. Für diese Hemmstoffkonzentration wurde in Parallelexperimenten ermittelt, dass sie eine Hemmung der extrazellulären Superoxidanionenproduktion um ca. 20 % zur Folge hat. […]

[2] = tested on: humane Magenkarzinomzellen MKN-45; assay: Apoptosis induction in tumour cells (morphological criteria, duplicate assays); type: cell-based, human; conditions: for Konzentration, bei der der maximale Apoptose-auslösende Effekt erzielt wird: MKN-45, 3,5 Stunden Inkubation; for Apoptoseinduktion in Tumorzellen: MKN-45, 3 Stunden, 37 °C, 5 % CO2; for Konzentration für optimale Wirkung: induction of apoptosis in tumour cells, single agents, combinations with Resveratrol, or hybrid
Experimental: Nach 3 Stunden bei 37 ° C, 5 % CO2 wurden die Prozentsätze apoptotischer Zellen bestimmt. […] Nach 3 Stunden bei 37 ° C, 5 % CO2 wurden die Prozentsätze apoptotischer Zellen bestimmt.
Die Daten basieren allesamt auf der quantitativen Bestimmung der Apoptose mittels der klassischen morphologischen Kriterien Kernkondensation, Kernfragmentation und Membrane Blebbing nach definierten Inkubationszeiten bei 37°C.
Die Ansätze erfolgten bei einer Zelldichte von 125 000 Zellen/ml in 96-Loch-Platten mit einem Reaktionsvolumen von 100 µl. Alle Ansätze wurden als Doppelansätze geführt und pro Messpunkt wurden mindestens 200 Zellen morphologisch bewertet. Eine detaillierte Aufstellung der verwendeten Medien, Inhibitoren, Zellen ist in den Arbeiten Scheit and Bauer, 2015; Bauer und Zarkovic, 2014; Bauer et al., 2014; Bauer, 2015 beschrieben.
Um zu klären, ob das Hybridmolekül aus Struktur- und Wirkungselementen von Resveratrol und Diallyldisulfid in der Lage ist, Apoptose in Tumorzellen zu induzieren, und dabei zu prüfen, ob sich durch die Kombination der Einzelfunktionen in einem Molekül der Synergieeffekt bündeln ließ, wurden steigende Konzentrationen des Hybridmoleküls zu Magenkarzinomzellen der Linie MKN-45 gegeben. Die als Parallelansätze geführten Ansätze wurden sowohl ohne als auch in Anwesenheit von 2 mM des Singulettsauerstofffängers Histidin inkubiert, um zu prüfen, ob der durch das Hybridmolekül ausgelöste Effekt durch Singulettsauerstoff vermittelt wird. Zum Vergleich wurde das gleiche Experiment mit steigenden Konzentrationen DADS durchgeführt, ebenfalls mit und ohne Histidinzugabe. Nach 3,5 Stunden Inkubation wurde der Prozentsatz apoptotischer Zellen bestimmt.

[3] = tested on: nichtmaligne, diploide humane Fibroblasten Alpha-1; assay: Apoptosis induction in non-malignant cells (morphological criteria); type: cell-based, human; conditions: Alpha-1 fibroblasts, 3 Stunden, 37 °C, 5 % CO2
Experimental: Figur 6: Diallyldisulfid und Dipropyldisulfid, nicht aber Diallylsulfid lösen selektiv in Tumorzellen interzelluläres Signaling und Apoptose aus. • A. 12 500 humane Magenkarzinomzellen MKN-45 oder 10 000 nichtmaligne, diploide humane Fibroblasten Alpha-1 wurden in Doppelansätzen in Serum-haltigen Medium mit den angegebenen Konzentrationen an Diallyldisulfid (DADS), Dipropyldisulfid (DPDS) oder Diallylsulfid (DAS) versetzt. Nach 3 Stunden bei 37 ° C, 5 % CO2 wurden die Prozentsätze apoptotischer Zellen bestimmt. […] Nach 3 Stunden bei 37 ° C, 5 % CO2 wurden die Prozentsätze apoptotischer Zellen bestimmt. Das Ergebnis zeigt, dass die durch DADS ausgelöste Apoptose von der Wirkung von Singulettsauerstoff, Superoxidanionen, Caspase-8, NO und HOCI abhängig ist.
Die Daten basieren allesamt auf der quantitativen Bestimmung der Apoptose mittels der klassischen morphologischen Kriterien Kernkondensation, Kernfragmentation und Membrane Blebbing nach definierten Inkubationszeiten bei 37°C. Parallel wurden diese Kriterien mithilfe der TUNEL-Reaktion gesichert, wodurch die für die Apoptose charakteristischen DNA-Strangbrüche nachgewiesen wurden, und die Abhängigkeit der Apoptoseinduktion von Caspase-3 und Caspase-9 überprüft, wodurch sichergestellt war, dass die Apoptose über den mitochondrialen Weg abläuft. […]

[4] = molecular target: T2, protektive Katalase von Tumorzellen (Homo sapiens, UniProt P04040); assay: Inactivation of protective catalase: sensitisation of MKN-45 cells to peroxynitrite-induced apoptosis; type: cell-based; conditions: 150 µM DADS for 20 min or 50 mM 3-AT, apoptosis 100 min after PON
T2 construct: endogenous in cells; host or cells: MKN-45 (human gastric carcinoma cell line)
T2 sequence (P04040 2-527 limits assumed): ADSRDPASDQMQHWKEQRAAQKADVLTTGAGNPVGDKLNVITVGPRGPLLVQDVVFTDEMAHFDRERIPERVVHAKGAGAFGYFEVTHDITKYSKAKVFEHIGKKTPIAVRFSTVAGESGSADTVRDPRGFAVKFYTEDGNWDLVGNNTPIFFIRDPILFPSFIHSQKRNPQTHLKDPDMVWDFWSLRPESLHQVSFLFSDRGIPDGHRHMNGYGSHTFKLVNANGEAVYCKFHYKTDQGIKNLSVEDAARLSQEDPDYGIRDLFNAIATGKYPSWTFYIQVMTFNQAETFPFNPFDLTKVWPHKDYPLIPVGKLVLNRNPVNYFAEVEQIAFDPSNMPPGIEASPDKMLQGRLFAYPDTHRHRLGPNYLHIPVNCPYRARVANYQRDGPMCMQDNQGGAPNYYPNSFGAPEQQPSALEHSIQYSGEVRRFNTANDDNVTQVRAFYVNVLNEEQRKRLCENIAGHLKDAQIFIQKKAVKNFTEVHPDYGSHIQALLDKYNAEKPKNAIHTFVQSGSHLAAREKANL
Experimental: Figur 8: DADS führt zur Inaktivierung der protektiven Katalase von Tumorzellen • A. Humane MKN-45 Tumorzellen enthielten entweder zunächst keine Zusätze (Kontrolle), 50 mM des Katalasehemmers 3-AT oder wurden für 20 Minuten mit 150 µM DADS behandelt. Nach einem Waschschritt und der Verdünnung der Zellkonzentration auf 6000 Zellen / 100 µl Ansatz wurde Peroxynitrit (PON) in den angegebenen Konzentrationen zugegeben. Nach 100 Minuten erfolgte die Bestimmung der apoptotischen Zellen in Doppelansätzen. Wie die Kontrolle zeigt, sind die Tumorzellen vor der Apoptose-auslösenden Wirkung von Peroxynitrit geschützt.
Figur 8 A zeigt, dass die kurzzeitige Behandlung von Tumorzellen mit DADS den gleichen Effekt hat, wie die Zugabe des Katalasehemmstoffs 3-Aminotriazol (3-AT), nämlich die Zellen für die Apoptose-auslösende Wirkung von exogen zugegebenem Peroxynitrit (PON) zu aktivieren. Die Sensitivierung für die Wirkung von PON ermöglicht die selektive Testung der Inaktivierung der membranständigen Katalase von Tumorzellen (Heinzelmann and Bauer, 2010; Böhm et al., 2015). Im Gegensatz zu DADS führt DAS zu keiner Inaktivierung der Katalase (Figur 8 F). […]

[5] = tested on: NO Dioxygenase; assay: Test for inhibition of NO dioxygenase (enhanced effect of NO donor DEA NONOate on superoxide-producing cells); type: cell-based
Description: Die Messung erfordert, dass durch geeignete Maßnahmen, wie bei Scheit und Bauer, 2015 beschrieben, die Tumorzellkatalase maximal inhibiert, die Hemmwirkung von H2O2 auf ·NO und Peroxynitrit durch Anwesenheit eines Katalasemimetikums verhindert und de novo Synthese von ·NO durch die Anwesenheit des NOS Inhibitors L-NAME verhindert wird.
as §1

Question: What does the source list for `NCCc1ccc(S(=O)(=O)F)cc1` [AEBSF, 4-(2-Aminoethyl)benzenesulfonyl fluoride]?
Answer: Hemmung von NOX1 / der extrazellulären Superoxidanionenproduktion ([1]; 5 µM): 20%; Hemmung von NOX1 / der Superoxidanionensynthese ([1]; 100 µM): > 95% and > 90%

Question: For `C=CCSSCC=C` [DADS, Diallyldisulfid], which EC40 ([2]; Homo sapiens, MKN-45, 3.5 h, read-out: Konzentration für den gleichen Effekt (ca. 40 Prozent des Maximalwertes der Apoptoseinduktion)) is on record?
Answer: 1.1 µM

Question: And the “Konzentration, bei der der maximale Apoptose-auslösende Effekt erzielt wird” value ([2]; alleinige Gabe)?
Answer: 10 µM

Question: And the “Apoptoseinduktion in Tumorzellen” value [2]?
Answer: konzentrationsabhängig zur Apoptose

Question: And the “Apoptoseinduktion in normalen Zellen” value [3]?
Answer: nicht aber bei den normalen Zellen

Question: What about the “Wirkung auf die protektive Katalase (sensitisation to peroxynitrite)” value [4] of the same molecule?
Answer: gleichen Effekt wie der Katalasehemmstoff

Question: What about the “Hemmung der NO Dioxygenase” value [5] of the same molecule?
Answer: Hemmung dieses Enzyms

Question: `C=CCSCC=C` [DAS, Diallylsulfid] was tested. Which “Apoptoseinduktion in Tumorzellen” value [2] did it give?
Answer: keine Aktivität

Question: And the “Wirkung auf die protektive Katalase (sensitisation to peroxynitrite)” value [4]?
Answer: keine Wirkung auf die protektive Katalase

Question: Which results are given for `CCCSSCCC` [DPDS, Dipropyldisulfid]?
Answer: Apoptoseinduktion in Tumorzellen [2]: konzentrationsabhängig zur Apoptose; Apoptoseinduktion in normalen Zellen [3]: nicht aber bei den normalen Zellen

Question: How did the “Prozent des Maximalwertes der Apoptoseinduktion” value ([2]; 1 nM, MKN-45, 3,5 Stunden) turn out when `C=CCSSCCCOc1cc(/C=C/c2ccc(O)cc2)cc(OCCCSSCC=C)c1` [Hybridmolekül] was run?
Answer: ca. 40 Prozent

Question: And the “Konzentration, bei der der maximale Apoptose-auslösende Effekt erzielt wird” value [2]?
Answer: 0.01 µM

Question: And the “Konzentration für optimale Wirkung” value [2]?
Answer: 3 to 30 nM

Question: And the “Steigerung der Wirkung durch Zugabe von Einzelkomponenten” value ([2]; plus 0,9 µM Resveratrol, 0.3 µM DADS or 2,5 µM NOR-NOHA, MKN-45, 3,5 Stunden)?
Answer: nicht steigern

Question: And the “wirksamer als Diallyldisulfid” value ([2]; shift of concentration-effect curves, apoptosis in MKN-45)?
Answer: ~1000 -fach

Question: `O=c1c(O)c(-c2ccc(O)c(O)c2)oc2cc(O)cc(O)c12` [Quercitin] was tested. Which “Hemmung der NO Dioxygenase” value [5] did it give?
Answer: Hemmung dieses Enzyms

Question: How did the “wirksamer in Bezug auf Induktion der Apoptose in Tumorzellen als Diallyldisulfid” value ([2]; from Tabelle 2) turn out when `CC(=O)O[C@H]1C(=O)[C@@]2(C)[C@H]([C@H](OC(=O)c3ccccc3)[C@]3(O)C[C@H](OC(=O)[C@H](O)[C@@H](NC(=O)c4ccccc4)c4ccccc4)C(C)=C1C3(C)C)[C@]1(OC(C)=O)CO[C@@H]1C[C@@H]2O` [Taxol] was run?
Answer: ≥ 10 -fach

Question: What about the “Konzentration für optimale Wirkung” value [2] of the same molecule?
Answer: 900 to 3800 nM

Question: What about the “Hemmung der NO Dioxygenase” value [5] of the same molecule?
Answer: Hemmung dieses Enzyms

Question: How did the “Hemmung der NO Dioxygenase” value [5] turn out when Epothilon B was run?
Answer: Hemmung dieses Enzyms
